Here are results for 16 molecules from patent US10428080B2, “TBK/IKK inhibitor compounds and uses thereof” (Merck Patent GmbH, priority 2015, dated 2019).

One test concerns the target T1, IKKε (Homo sapiens, UniProt Q14164).
T1 sequence (Q14164 1-716): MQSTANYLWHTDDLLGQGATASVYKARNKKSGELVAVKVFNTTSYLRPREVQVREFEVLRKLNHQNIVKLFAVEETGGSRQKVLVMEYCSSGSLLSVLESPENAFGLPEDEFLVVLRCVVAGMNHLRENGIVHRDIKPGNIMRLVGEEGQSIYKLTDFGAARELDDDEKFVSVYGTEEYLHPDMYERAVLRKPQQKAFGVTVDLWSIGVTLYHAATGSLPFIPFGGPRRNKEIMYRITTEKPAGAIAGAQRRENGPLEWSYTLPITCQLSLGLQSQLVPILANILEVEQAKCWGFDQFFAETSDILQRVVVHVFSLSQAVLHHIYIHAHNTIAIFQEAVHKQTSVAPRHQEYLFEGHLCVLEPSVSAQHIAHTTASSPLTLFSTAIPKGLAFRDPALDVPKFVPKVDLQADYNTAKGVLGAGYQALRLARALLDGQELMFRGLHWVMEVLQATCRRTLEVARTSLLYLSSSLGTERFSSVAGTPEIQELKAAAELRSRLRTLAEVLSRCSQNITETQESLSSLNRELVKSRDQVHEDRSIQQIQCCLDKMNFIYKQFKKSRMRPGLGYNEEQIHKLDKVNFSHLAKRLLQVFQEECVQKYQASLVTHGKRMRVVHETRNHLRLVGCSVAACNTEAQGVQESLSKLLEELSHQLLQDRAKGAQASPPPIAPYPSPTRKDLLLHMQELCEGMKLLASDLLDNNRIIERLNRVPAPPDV
Put plainly: IKKe Biochemical Assay. To be noted: read-out: IKKε IC50. The method in brief:
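Activity was measured as mobility-shift separation of phosphorylated from unphosphorylated substrate on a LabChip EZ Reader. Compound was titrated from 30 uM final in 10 points, 1:4 steps, with 1% DMSO, and enzyme plus substrate reacted 90 min at 25° C before stop buffer. Control wells held 10 uM staurosporine.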

The test system of test [1] is phosphorylation of the IRF-3 protein in MDA-MB-468 cells. Put plainly: pIRF3 immunocytochemistry cell based assay. The conditions noted are these: Homo sapiens. In short, it runs like this: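 After 2 h stimulation with Poly(I:C) (10 ug/ml), following 1 h compound pre-treatment (10-point, 3-fold dilution, top 10 uM), MDA-MB-468 cells were fixed and stained with anti-pIRF3 antibody. pIRF3 fluorescence was normalized to PI staining or cell count on an Acumen cytometer. IC50 curves were derived from this.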

The target of a further test is T2, TBK1 (Homo sapiens, UniProt Q9UHD2).
T2 sequence (Q9UHD2 1-729): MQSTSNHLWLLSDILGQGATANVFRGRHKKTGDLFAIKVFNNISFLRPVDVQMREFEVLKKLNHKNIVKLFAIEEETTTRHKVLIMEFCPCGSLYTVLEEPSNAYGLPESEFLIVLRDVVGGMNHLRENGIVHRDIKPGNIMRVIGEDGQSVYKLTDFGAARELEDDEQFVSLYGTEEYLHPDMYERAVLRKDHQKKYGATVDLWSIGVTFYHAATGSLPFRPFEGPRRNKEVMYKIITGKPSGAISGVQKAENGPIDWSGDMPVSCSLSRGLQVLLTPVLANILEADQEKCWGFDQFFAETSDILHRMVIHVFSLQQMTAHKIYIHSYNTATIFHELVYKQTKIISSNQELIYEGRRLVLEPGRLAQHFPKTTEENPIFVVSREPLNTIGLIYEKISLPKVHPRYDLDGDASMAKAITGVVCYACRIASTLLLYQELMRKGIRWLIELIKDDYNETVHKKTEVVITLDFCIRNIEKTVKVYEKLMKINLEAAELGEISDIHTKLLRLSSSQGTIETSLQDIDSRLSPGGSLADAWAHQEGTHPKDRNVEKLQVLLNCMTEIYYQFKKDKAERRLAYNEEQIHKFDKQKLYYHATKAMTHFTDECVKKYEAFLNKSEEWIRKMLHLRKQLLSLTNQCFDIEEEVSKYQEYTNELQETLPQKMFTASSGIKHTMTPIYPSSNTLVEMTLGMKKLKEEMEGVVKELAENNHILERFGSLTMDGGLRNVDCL
Put plainly: TBK Biochemical Assay. To be noted: read-out: TBK1 IC50. In short, it runs like this:
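Caliper LabChip mobility-shift readout of substrate and product after 90 min of TBK1 reaction at 25° C and stop-buffer addition. Compounds tested in 1:4 serial dilution over 10 points from 30 uM final at 1% DMSO; staurosporine 10 uM final defines full inhibition.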

The mark [2] stands for this setting: MDA-MB-468 cells, Poly(I:C) stimulation, read-out: pIRF3 IC50.

Structures can show the parent of a compound that is named as a salt. Where two headings read alike, the source gives them in different places.

What is called IC50 is the concentration that gives 50% inhibition. On to `COc1cc(C(=O)N2CC3CC(C2)O3)cnc1-c1cc2nccc(-c3ccc(OC4CCOCC4)c(C#N)c3)c2o1` [Compound 435, 5-[2-[3-methoxy-5-([6-oxa-3-azabicyclo[3.1.1]heptan-3-yl]carbonyl)pyridin-2-yl]furo[3,2-b]pyridin-7-yl]-2-(oxan-4-yloxy)benzonitrile], for which the IC50 (on IKKε; in test [1] (setting [2]); at TBK1) was less than 0.1 µM each time.
`CN(C)C(=O)c1ccc(-c2cc3nccc(-c4ccc(OC5(C)CCOCC5)c(C#N)c4)c3o2)cc1` [Compound 159, 4-{7-[3-Cyano-4-(4-methyl-tetrahydro-pyran-4-yloxy)-phenyl]-furo[3,2-b]pyridin-2-yl}-N,N-dimethyl-benzamide]: the IC50 at IKKε was 0.1 to 1 µM; in test [1] (setting [2]), more than 5 µM; at TBK1, 0.1 to 1 µM.
With `COc1cc(C(=O)N(C)C)ncc1-c1cc2nccc(-c3ccc(NC4CCOCC4)c(C#N)c3)c2o1` [Compound 325, 5-(7-[3-cyano-4-[(oxan-4-yl)amino]phenyl]furo[3,2-b]pyridin-2-yl)-4-methoxy-N,N-dimethylpyridine-2-carboxamide], the half-maximal inhibitory concentration (IC50) is less than 0.1 µM on IKKε; 0.1 to 1 µM in test [1] (MDA-MB-468, read-out: pIRF3 IC50); less than 0.1 µM on TBK1.
On to `COc1cc(C(=O)N(C)CCO)ccc1-c1cc2ncc(F)c(-c3ccc(NC4CCOCC4)c(C#N)c3)c2o1` [Compound 296, 4-(7-[3-cyano-4-[(oxan-4-yl)amino]phenyl]-6-fluorofuro[3,2-b]pyridin-2-yl)-N-(2-hydroxyethyl)-3-methoxy-N-methylbenzamide], for which the values for the IC50 (on IKKε; in test [1] (setting [2]); at TBK1) were less than 0.1 µM, 0.1 to 1 µM and less than 0.1 µM, respectively.
For `COc1cc(C(=O)NC(C)(C)CN(C)C)ccc1-c1cc2nccc(-c3ccc(NC4CCOCC4)c(C#N)c3)c2o1` [Compound 134, 4-{7-[3-Cyano-4-(tetrahydro-pyran-4-ylamino)-phenyl]-furo[3,2-b]pyridin-2-yl}-N-(2-dimethylamino-1,1-dimethyl-ethyl)-3-methoxy-benzamide], the IC50 at IKKε was less than 0.1 µM; in test [1] (setting [2]), 0.1 to 1 µM; on TBK1 it was less than 0.1 µM.
As for `COc1cc(C(=O)N2CCCCC2)cnc1-c1cc2nccc(-c3ccc(N4CC[C@@H](F)C4)c(C#N)c3)c2o1` [Compound 410, 2-[(3R)-3-fluoropyrrolidin-1-yl]-5-(2-[3-methoxy-5-[(piperidin-1-yl)carbonyl]pyridin-2-yl]furo[3,2-b]pyridin-7-yl)benzonitrile], the IC50 at IKKε was less than 0.1 µM; in test [1] (setting [2]) it was 0.1 to 1 µM; at TBK1, less than 0.1 µM.
With `COc1cc(C(=O)N2CCCCN2C)ccc1-c1cc2nccc(-c3ccc(OC4CCOCC4)c(C#N)c3)c2o1` [Compound 478, 5-{2-[2-Methoxy-4-(2-methyl-tetrahydro-pyridazine-1-carbonyl)-phenyl]-furo[3,2-b]pyridin-7-yl}-2-(tetrahydro-pyran-4-yloxy)-benzonitrile], the IC50 on IKKε is less than 0.1 µM; in test [1] (setting [2]) it was 0.1 to 1 µM; at TBK1, less than 0.1 µM.
With `COc1cc(C(=O)N2CC3CCC(C2)O3)cnc1-c1cc2nccc(-c3ccc(OC4CCOCC4)c(C#N)c3)c2o1` [Compound 411, 5-[2-[3-methoxy-5-([8-oxa-3-azabicyclo[3.2.1]octan-3-yl]carbonyl)pyridin-2-yl]furo[3,2-b]pyridin-7-yl]-2-(oxan-4-yloxy)benzonitrile hydrochloride], the IC50 on IKKε is less than 0.1 µM; in test [1] (setting [2]) it was 0.1 to 1 µM; at TBK1 it was less than 0.1 µM.
On to `COc1cc(C(=O)N(C)C)ncc1-c1cc2nccc(-c3ccc(OC4CN(C)C4)c(C#N)c3)c2o1` [Compound 424, 5-(7-[3-cyano-4-[(1-methylazetidin-3-yl)oxy]phenyl]furo[3,2-b]pyridin-2-yl)-4-methoxy-N,N-dimethylpyridine-2-carboxamide], for which the IC50 (on IKKε; in test [1] (setting [2]); at TBK1) was 0.1 to 1 µM each time.
With `COc1cc(C(=O)N(C)C)cnc1-c1cc2nccc(-c3ccc(OC4CCN(C)C4)c(C#N)c3)c2o1` (stereo not drawn) [Compound 426, 6-(7-[3-cyano-4-[(1-methylpyrrolidin-3-yl)oxy]phenyl]furo[3,2-b]pyridin-2-yl)-5-methoxy-N,N-dimethylpyridine-3-carboxamide], the IC50 (on IKKε; in test [1] (setting [2]); at TBK1) was 0.1 to 1 µM in each case.
For `COc1cc(C(=O)N2CC[C@@H](N(C)C)C2)ncc1-c1cc2nccc(-c3ccc(N4CCC(F)C4)c(C#N)c3)c2o1` (stereo partly drawn) [Compound 457, 5-[2-(6-[[(3R)-3-(dimethylamino)pyrrolidin-1-yl]carbonyl]-4-methoxypyridin-3-yl)furo[3,2-b]pyridin-7-yl]-2-(3-fluoropyrrolidin-1-yl)benzonitrile], the IC50 (at IKKε; in test [1] (setting [2]); on TBK1) was less than 0.1 µM in each case.
Turning to `COc1cc(C(=O)N(C)CCN2CCCC2)ccc1-c1cc2nccc(-c3ccc(OC4CCOCC4)c(C#N)c3)c2o1` [Compound 473, 4-{7-[3-Cyano-4-(tetrahydro-pyran-4-yloxy)-phenyl]-furo[3,2-b]pyridin-2-yl}-3-methoxy-N-methyl-N-(2-pyrrolidin-1-yl-ethyl)-benzamide], the half-maximal inhibitory concentration (IC50) (on IKKε; in test [1] (setting [2]); on TBK1) was less than 0.1 µM each time.
In the case of `COc1cc(C(=O)N2CCCCN2)ccc1-c1cc2nccc(-c3ccc(OC4CCOCC4)c(C#N)c3)c2o1` [Compound 482, 5-{2-[2-Methoxy-4-(tetrahydro-pyridazine-1-carbonyl)-phenyl]-furo[3,2-b]pyridin-7-yl}-2-(tetrahydro-pyran-4-yloxy)-benzonitrile], the half-inhibitory concentration (IC50) was less than 0.1 µM on IKKε, 0.1 to 1 µM in test [1] (setting [2]) and less than 0.1 µM at TBK1.
On to `COc1cc(C(=O)N2CC3CCC(O)C3C2)ccc1-c1cc2nccc(-c3ccc(OC4CCOCC4)c(C#N)c3)c2o1` (stereo not drawn) [Compound 18, 5-{2-[4-(4-Hydroxy-hexahydro-cyclopenta[c]pyrrole-2-carbonyl)-2-methoxy-phenyl]-furo[3,2-b]pyridin-7-yl}-2-(tetrahydro-pyran-4-yloxy)-benzonitrile], for which the IC50 at IKKε is less than 0.1 µM; in test [1] (setting [2]), 0.1 to 1 µM; at TBK1, less than 0.1 µM.
`N#Cc1cc(-c2ccnc3cc(-c4ccc(C(=O)NC5CNCCC5F)cc4)oc23)ccc1OC1CCOCC1` (racemic) [Compound 131, 4-{7-[3-Cyano-4-(tetrahydro-pyran-4-yloxy)-phenyl]-furo[3,2-b]pyridin-2-yl}-N-(4-fluoro-piperidin-3-yl)-benzamide]: the results for the IC50 (at IKKε; in test [1] (setting [2]); on TBK1) were less than 0.1 µM, 0.1 to 1 µM and less than 0.1 µM, respectively.
On to `CC(C)N1CCN(C(=O)c2ccc(-c3cc4nccc(-c5ccc(OC6CCOCC6)c(C#N)c5)c4o3)cc2)CC1` [Compound 116, 5-{2-[4-(4-Isopropyl-piperazine-1-carbonyl)-phenyl]-furo[3,2-b]pyridin-7-yl}-2-(tetrahydro-pyran-4-yloxy)-benzonitrile], for which the figures for the IC50 (at IKKε; in test [1] (setting [2]); on TBK1) were less than 0.1 µM, 0.1 to 1 µM and less than 0.1 µM, respectively.
